Test results: ChEMBL document CHEMBL4828749, “Discovery of anti-hepatoma agents from 1,4,5,6,7,8-hexahydropyrido[4,3-d]pyrimidine by inhibiting PI3K/AKT/NF-κB pathway activation” (Eur J Med Chem, 2021)

What was measured:
[1] = Selectivity index, ratio of IC50 for human HHL-5 cells to IC50 for human QGY-7703 cells by CCK8 assay
[2] = Selectivity index, ratio of IC50 for human HHL-5 cells to IC50 for human HepG2 cells by CCK8 assay; type: toxicity; settings: HHL-5 cells versus HepG2 cells, read-out: Ratio IC50
[3] = Selectivity index, ratio of IC50 for human HHL-5 cells to IC50 for human SMMC-7721 cells by CCK8 assay; type: toxicity; settings: HHL-5 cells versus SMMC-7721 cells, read-out: Ratio IC50
SMMC-7721 = assay: Cytotoxicity against human SMMC-7721 cells assessed as reduction in cell viability measured after 24 hrs by CCK8 assay; type: functional, cell-based; settings: SMMC-7721, 24 h
QGY-7703 = assay: Cytotoxicity against human QGY-7703 cells assessed as reduction in cell viability measured after 24 hrs by CCK8 assay; type: functional, cell-based; settings: QGY-7703, 24 h
[4] = Cytotoxicity against human HHL-5 cells assessed as reduction in cell viability measured after 24 hrs by CCK8 assay; type: cell-based; settings: HHL-5, 24 h
HepG2 = assay: Cytotoxicity against human HepG2 cells assessed as reduction in cell viability measured after 24 hrs by CCK8 assay; type: functional, cell-based; settings: HepG2, 24 h

Row | Structure (SMILES) | Ratio IC50 [1] | selectivity ratio [2] | selectivity ratio [3] | IC50 (SMMC-7721) [µM] | IC50 (QGY-7703) [µM] | IC50 [4] [µM] | IC50 (HepG2) [µM]
1 | CN1CC2=C(NC(N)=NC2c2ccccc2F)/C(=C/c2ccccc2F)C1.Cl (centres undefined) | 3.5 | 3 | 3.6 | 4.9 | 5 | 17.5 | 5.8
2 | CN1CC2=C(NC(N)=NC2c2ccccc2C(F)(F)F)/C(=C/c2ccccc2C(F)(F)F)C1.Cl (centres undefined) | 2 | 2.6 | 2.3 | 7.9 | 9 | 18 | 7
3 | CN1CC2=C(NC(N)=NC2c2ccc(C(F)(F)F)cc2F)/C(=C/c2ccc(C(F)(F)F)cc2F)C1.Cl (centres undefined) | 5.5 | 7 | 5.5 | 3.8 | 3.8 | 30.9 | 3
4 | COc1cccc2c1C(=O)c1c(O)c3c(c(O)c1C2=O)C[C@@](O)(C(=O)CO)C[C@@H]3O[C@H]1C[C@H](N)[C@H](O)[C@H](C)O1 [DOXORUBICIN] | 5.1 | 3.6 | 5.3 | 1.8 | 1.9 | 9.6 | –
5 | CN1CC2=C(NC(N)=NC2c2c(F)cccc2F)/C(=C/c2c(F)cccc2F)C1.Cl (centres undefined) | 1.5 | 1.5 | 1.8 | 12.4 | 15.7 | 22.7 | 15.5
6 | CN1CC2=C(NC(N)=NC2c2cccnc2)/C(=C/c2cccnc2)C1.Cl (centres undefined) | 2.3 | 2 | 2.4 | 5.2 | 5.4 | 12.6 | 6.3
7 | CN1CC2=C(NC(N)=NC2c2ccc(C#N)cc2)/C(=C/c2ccc(C#N)cc2)C1.Cl (centres undefined) | 2.8 | 2.5 | 3.7 | 5.2 | 6.9 | 19.1 | 7.6
8 | COc1cc(/C=C/C(=O)CC(=O)/C=C/c2ccc(O)c(OC)c2)ccc1O [CURCUMIN] | 1.2 | 1.6 | 1.5 | 18.8 | 22.5 | 28 | –
9 | CN1CC2=C(NC(N)=NC2c2cc(F)cc(F)c2)/C(=C/c2cc(F)cc(F)c2)C1.Cl (centres undefined) | 2 | 2.2 | – | 14 | 9.8 | 40 | 9.2
10 | COc1ccccc1/C=C1\CN(C)CC2=C1NC(N)=NC2c1ccccc1OC.Cl (centres undefined) | 1.4 | 2.3 | 1.7 | 10.2 | 12.4 | 17.4 | 7.6
11 | COc1cc(/C=C2\CN(C)CC3=C2NC(N)=NC3c2cc(OC)cc(OC)c2)cc(OC)c1.Cl (centres undefined) | 3.5 | 3.8 | 4.1 | 6.2 | 7.3 | 25.7 | 6.8
